Reference: ChEMBL document CHEMBL1127021, “Structure-activity relationship of a series of phenylureas linked to 4-phenylimidazole. Novel potent inhibitors of acyl-CoA:cholesterol O-acyltransferase with antiatherosclerotic activity. 2” (J Med Chem, 1993)

Legend:
O-acyltransferase = O-acyltransferase (Oryctolagus cuniculus, UniProt G1SFD9); test: Inhibition against acyl coenzyme A:cholesterol acyltransferase derived from rabbit intestine microsomes
Rattus norvegicus = test: Cholesterol lowering activity in rats after a dose of 4 mg/kg once a day for 2 days; assay type: functional
[1] = target: T1, Acyl-CoA:cholesterol acyltransferase (Oryctolagus cuniculus, UniProt Q95214); test: Inhibition against acyl coenzyme A:cholesterol acyltransferase derived from rabbit aorta homogenate; assay type: tissue-based
T1 sequence (Q95214 whole entry): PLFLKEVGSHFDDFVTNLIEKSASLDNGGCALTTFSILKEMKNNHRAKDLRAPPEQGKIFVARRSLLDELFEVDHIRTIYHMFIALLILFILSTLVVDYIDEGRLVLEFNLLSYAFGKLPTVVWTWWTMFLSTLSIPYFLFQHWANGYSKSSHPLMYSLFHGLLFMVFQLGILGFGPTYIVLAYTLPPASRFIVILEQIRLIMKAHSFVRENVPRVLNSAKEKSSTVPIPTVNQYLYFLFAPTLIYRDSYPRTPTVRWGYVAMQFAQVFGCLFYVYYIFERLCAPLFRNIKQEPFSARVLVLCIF

O-acyltransferase, sequence (G1SFD9 1-524): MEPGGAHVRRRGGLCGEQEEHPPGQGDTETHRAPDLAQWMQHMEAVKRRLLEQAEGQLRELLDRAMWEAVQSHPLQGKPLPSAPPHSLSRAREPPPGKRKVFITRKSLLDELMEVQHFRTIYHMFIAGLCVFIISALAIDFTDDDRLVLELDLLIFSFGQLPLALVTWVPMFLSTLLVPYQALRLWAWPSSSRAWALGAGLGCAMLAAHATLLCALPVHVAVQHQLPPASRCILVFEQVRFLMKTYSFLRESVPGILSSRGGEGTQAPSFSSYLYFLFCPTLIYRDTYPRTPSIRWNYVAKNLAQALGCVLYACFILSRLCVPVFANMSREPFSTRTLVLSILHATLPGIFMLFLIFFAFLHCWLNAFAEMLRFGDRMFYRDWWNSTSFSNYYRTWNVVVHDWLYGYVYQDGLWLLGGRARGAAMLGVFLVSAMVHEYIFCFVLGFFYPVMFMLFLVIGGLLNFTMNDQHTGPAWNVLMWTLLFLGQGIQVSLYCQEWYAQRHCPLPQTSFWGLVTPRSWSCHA

| SMILES | IC50 (O-acyltransferase) | IC50 [1] | Cholesterol reduction (Rattus norvegicus) |
| --- | --- | --- | --- |
| CCCCCNC(=O)Nc1c(C)cccc1CSCCn1cnc(-c2ccccc2)c1C | 570 nM | 70 nM | -11% |
| CCCCCNC(=O)Nc1c(C)cccc1OCCCn1cnc(-c2ccccc2S(C)(=O)=O)c1 | 160 nM | 410 nM | -19% |
| CCCCCNC(=O)Nc1c(OCCCn2cnc(-c3ccccc3)c2C)cccc1[N+](=O)[O-] | 44 nM | 60 nM | -52% |
| CCCCCNC(=O)Nc1c(C)cccc1C[S+]([O-])CCn1cnc(-c2ccccc2)c1C (stereo not drawn) | > 1000 nM | 440 nM | – |
| CCCCCNC(=O)Nc1ccccc1OCCCn1cnc(-c2ccccc2)c1C | 230 nM | 390 nM | 3.9% |
| CCCCCNC(=O)Nc1c(C)cccc1OCCCn1cnc(-c2ccccc2NS(C)(=O)=O)c1 | 450 nM | 240 nM | -39% |
| CCCCCNC(=O)Nc1c(NS(=O)(=O)C(F)(F)F)cccc1OCCCn1cnc(-c2ccccc2)c1C | > 1000 nM | > 10000 nM | – |
| CCCCCNC(=O)Nc1c(NS(C)(=O)=O)cccc1OCCCn1cnc(-c2ccccc2)c1C | 140 nM | 480 nM | 3.6% |
| CCCCCNC(=O)Nc1c(C)cccc1OCCCn1cnc(-c2ccccc2)c1C(=O)O | > 1000 nM | > 1000 nM | – |
| CCCCCNC(=O)Nc1c(C)cccc1[S+]([O-])CCCn1cnc(-c2ccccc2)c1C (stereo not drawn) | > 1000 nM | > 1000 nM | – |
| CCCCCNC(=O)Nc1c(CN(C)C)cccc1OCCCn1cnc(-c2ccccc2)c1C | 1300 nM | 2600 nM | – |
| CCCCCNC(=O)Nc1c(C)cccc1OCCCn1cnc(-c2ccc(NS(C)(=O)=O)cc2)c1 | > 1000 nM | > 1000 nM | – |
| CCCCCNC(=O)Nc1c(C)cccc1OCCCn1cnc(-c2ccccc2)c1C(=O)OCC | 150 nM | 55 nM | – |
| CCCCCNC(=O)Nc1c(C)cccc1CS(=O)(=O)CCn1cnc(-c2ccccc2)c1C | > 1000 nM | 90 nM | – |
| CCCCCNC(=O)Nc1c(C)cccc1OCCCn1cnc(-c2cc(OC)c(OC)c(OC)c2)c1 | 510 nM | 900 nM | – |
| CCCCCNC(=O)Nc1c(C)cccc1OCCCn1cnc(-c2c(OC)cc(OC)cc2OC)c1 | > 1000 nM | > 1000 nM | – |
| CCCCCNC(=O)Nc1c(C)cccc1S(=O)(=O)CCCn1cnc(-c2ccccc2)c1C | 600 nM | 730 nM | – |
| CCCCCNC(=O)Nc1c(C)cccc1OCCCn1cnc(-c2ccccc2)c1CS(C)(=O)=O | 410 nM | > 1000 nM | – |
| CCCCCNC(=O)Nc1c(C)cccc1OCCCn1cnc(-c2cccc(NS(C)(=O)=O)c2)c1 | > 1000 nM | > 1000 nM | – |

Further lines, with some results ahead:

| IC50 (O-acyltransferase) | IC50 [1] | SMILES | Cholesterol reduction (Rattus norvegicus) |
| --- | --- | --- | --- |
| 69 nM | 71 nM | CCCCCNC(=O)Nc1c(F)cccc1OCCCn1cnc(-c2ccccc2)c1C | -30% |
| 460 nM | 960 nM | CCCCCNC(=O)Nc1c(O)cccc1OCCCn1cnc(-c2ccccc2)c1C | – |
| 73 nM | 100 nM | CCCCCNC(=O)Nc1c(Cl)cccc1OCCCn1cnc(-c2ccccc2)c1C | -49% |
| 100 nM | 590 nM | CCCCCNC(=O)Nc1c(N)cccc1OCCCn1cnc(-c2ccccc2)c1C | -21% |
| 140 nM | 50 nM | CCCCCNC(=O)Nc1c(OCCCn2cnc(-c3ccccc3)c2C)cccc1S(C)(=O)=O | -33% |
| 150 nM | 600 nM | CCCCCNC(=O)Nc1c(NC)cccc1OCCCn1cnc(-c2ccccc2)c1C | -35% |
| 90 nM | 220 nM | CCCCCNC(=O)Nc1c(OC)cccc1OCCCn1cnc(-c2ccccc2)c1C | -34% |
| > 1000 nM | 1900 nM | CCCCCNC(=O)Nc1c(C#N)cccc1OCCCn1cnc(-c2ccccc2)c1C | – |
| 230 nM | 19 nM | CCCCCNC(=O)Nc1c(OCCCn2cnc(-c3ccccc3)c2C)cccc1SC | – |
